Blank lines part the entries; values can stand above or below the molecule they belong to.
Experiments:
[1] = test system: digestive lipase solution (mixture of pancreatic lipase, intestinal lipase, and the like) from rat intestinal acetone powder; experiment: Test 1: digestive lipase activity inhibition test with linoleic acid and oleic acid (Lipase Kit S, absorbance 412 nm); type: biochemical; conditions: DMSO solution
Description: 30 mL of 0.1 M citrate buffer solution (pH 6.0) was added to 30 mg of rat intestinal acetone powder (manufactured by SIGMA Corporation), shaken in ice for 1 hour, and centrifuged at 4° C. and 10,000 rpm for 45 minutes, to obtain a digestive lipase solution. The digestive lipase solution is a mixture of pancreatic lipase, intestinal lipase, and the like. […] After that, 25 μL of the substrate solution was added, and the reaction was carried out at 30° C. for 30 minutes in the dark. After that, 700 μL of a reaction stop solution was added, and the absorbance at 412 nm was measured for this solution. As the coloring solution, the substrate solution, the esterase inhibitor, and the reaction stop solution, those attached to Lipase Kit S (manufactured by SB Bioscience Co., Ltd.) were used. A control was prepared in a new 1.5 mL capacity tube for the purpose of measuring the absorbance of the above samples and reagents themselves. […] After that, 700 μL of reaction stop solution and 25 μL of substrate solution were added, and the absorbance at 412 nm was measured. In addition, blank a was prepared in the same manner as in the activity evaluation except that only DMSO was added instead of the DMSO solution of each sample, and blank b was prepared in the same manner as the control by adding only DMSO (control blank). Absorbance at 412 nm was also measured for blank a and blank b. Digestive lipase activity when each sample was added was calculated by the following equation. Digestive lipase activity (%)=100×(absorbance of each sample−absorbance of control)/(absorbance of blank a−absorbance of blank b) (Results)

[2] = test system: digestive lipase solution (mixture of pancreatic lipase, intestinal lipase, and the like) from rat intestinal acetone powder; experiment: Test 2: digestive lipase activity inhibition test with mixture of linoleic acid and oleic acid; type: biochemical; conditions: 0.009 mg/mL linoleic acid aqueous solution, final concentration
Description: A control was prepared in a new 1.5 mL capacity tube for the purpose of measuring the absorbance of the above samples and reagents themselves. […] After that, 700 μL of reaction stop solution and 25 μL of substrate solution were added, and the absorbance at 412 nm was measured. […] Absorbance at 412 nm was also measured for blank a and blank b.
First, the digestive lipase activity inhibition rate of each sample was calculated according to the equation shown below.

Digestive lipase activity ([1]; 0.19 mg/mL final concentration, 30° C. 30 minutes): 8.9%
Digestive lipase activity inhibition rate [2]: 9.6%
SMILES: CCCCC/C=C\C/C=C\CCCCCCCC(=O)O [linoleic acid]

Digestive lipase activity ([1]; 0.16 mg/mL final concentration, 30° C. 30 minutes): 7.1%
SMILES: CCCCCCCC/C=C\CCCCCCCC(=O)O [oleic acid]

SMILES: c1cc2c(cc1[C@H]1OC[C@H]3[C@@H]1CO[C@@H]3c1ccc3c(c1)OCO3)OCO2 [sesamin, reference compound]
Digestive lipase activity ([1]; 0.044 mg/mL final concentration, for comparison): 110.9%

— patent publication US12653801B2, “Digestive lipase activity inhibitor, blood triglyceride concentration increase inhibitor, and fat absorption inhibitor” (Pharma Foods International Co., Ltd., priority 2020, dated 2026)
